PubChem BioAssay AID2060505 (Molecular Pharmacology Branch, DTP, NCI, 2025)
Values joined by “and” are separate entries in the source; they are usually repeats but may differ in a detail not shown here. Identical values can stand only once.

Tested on: 633275-114-R-J1-PDC complex spheroids, viability
Test: Anticancer human tumor 633275-114-R-J1-PDC patient-derived endometrial adenocarcinoma cell line growth inhibition [GQUAD]
Details: for viability, T/C: stronger effect = lower value
From the text: DNA G-quadruplex Stabilizer Agents in Combinations in Complex Spheroids
A high-throughput screen of multi-cell type tumor spheroids was designed to identify active combinations of DNA G-quadruplex stabilizer agents and targeted small molecules. Complex spheroids include a stromal component modeled by human endothelial cells (HUVEC) and fibroblasts modeled by human mesenchymal stem cells (MSCs). The concentration ranges selected for each drug and investigational agent were based upon clinically achievable concentrations if the clinical Cmax of the agent was known.
Compounds. The drugs and investigational agents: pidnarulex (CX-5461; NSC782164), APTO-253 (NSC789042), BRACO-19 (NSC847499), peposertib (NSC802822), ceralasertib (NSC780249), elimusertib (NSC800525), camonsertib (NSC841442), AZD-1390 (NSC803789), olaparib (NSC753686), talazoparib (NSC767125), ART-558 (NSC835418), sotorasib (NSC818433), MRTX-1133 (NSC836407), SN-38 (NSC673596), topotecan (NSC609699), etoposide (NSC141540), doxorubicin (NSC123127), gemcitabine (NSC613327), 5-fluorouracil (NSC19893), paclitaxel (NSC125973), vemurafenib (NSC761431), panobinostat (NSC761190), R-306465 (JNJ-16241199; NSC773264), adavosertib (NSC754352), TP-3654 (NSC805149), carboplatin (NSC241240), KSQ-4279 (NSC840948), and staurosporine (NSC755774) were obtained from the National Cancer Institute (NCI) Developmental Therapeutics Program Chemical Repository (34). The FDA-approved anticancer drug set is available from the NCI Developmental Therapeutics Program. […] The stock solutions were prepared in dimethyl sulfoxide (DMSO, Sigma-Aldrich, St. Louis, MO, cat. D2650) at 800-fold the tested concentration and stored at -70 degrees C prior to their use. All drugs and investigational agents were tested over a range starting from a high concentration at or near the clinical Cmax and decreasing in half-log increments. If the clinical Cmax for an agent had not been determined, the highest concentration tested was 10 microM.
2.3 Cell Culture. All cells were maintained in an incubator at 37 degrees C and 5% CO2 with 95% humidity. The PDC lines were cultured according to standard operating procedures established by the NCI PDMR. All PDCs were thawed and cultured in Matrigel-coated flasks prepared with a working solution of 1X Ham's F-12 nutrient mix, without supplementation (Invitrogen, cat. 11765054), 100 U/mL penicillin-streptomycin (Invitrogen, cat. 15140122), and 2.5% Matrigel (Corning Inc., cat. 354248) for the first three passages. The 857933-349-R-J2-PDC line was cultured in 6C/Colon 1B media, which includes advanced DMEM/F-12 (Thermo Fisher Scientific, cat. 12634028), 10 mM HEPES (Thermo Fisher Scientific, cat. 15630080), 1X GlutaMAX supplement (Thermo Fisher Scientific, cat. 35050061), 0.1 mg/mL primocin (InvivoGen, cat. ant-pm-2), 10% defined fetal bovine serum, heat inactivated (HyClone Laboratories Inc., cat. SH30070.03HI), 50% L-WRN conditioned media (ATCC, cat. CRL-3276), 1.25 mM N-Acetyl-L-cysteine (Sigma-Aldrich, cat. A9165), 10 mM nicotinamide (Sigma-Aldrich, cat. N0636), 1X B-27 supplement (Thermo Fisher Scientific, cat. 17504044), 1X N-2 supplement (Thermo Fisher Scientific, cat. 17502048), 10 microM Y-27632 dihydrochloride (Tocris Bioscience, cat. 1254), and 50 ng/mL human EGF recombinant protein (Thermo Fisher Scientific, cat. PHG0311). The 485176-168-R4-J1-PDC line was cultured in Panc media, which includes all 6C/Colon 1B media components plus 100 ng/mL human FGF-10 (Thermo Fisher Scientific, cat. 100-26), 500 nM SB-431542 (Selleckchem, cat. S1067), and gastrin (Tocris, cat. 3006).
[…]
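Further: spheroids exposed to the agents for seven days.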
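Wherever viability, T/C is given: percent of DMSO vehicle control viability which is 100%.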

## CC(=O)O[C@H]1C(=O)[C@@]2(C)[C@H]([C@H](OC(=O)c3ccccc3)[C@]3(O)C[C@H](OC(=O)[C@H](O)[C@@H](NC(=O)c4ccccc4)c4ccccc4)C(C)=C1C3(C)C)[C@]1(OC(C)=O)CO[C@@H]1C[C@@H]2O + Cc1cnc(CNC(=O)c2c(=O)c3ccc(N4CCCN(C)CC4)nc3n3c2sc2ccccc23)cn1
Curve of first compound, second compound 0.0316 µM
  IC50: < 31.6 nM
Curve of first compound, second compound 0.1 µM
  IC50: < 31.6 nM
Curve of first compound, second compound 0.316 µM
  IC50: < 31.6 nM
Curve of first compound, second compound 1 µM
  IC50: < 31.6 nM
Curve of first compound, second compound 3.16 µM
  IC50: < 31.6 nM
Curve of first compound, second compound 10 µM
  IC50: < 31.6 nM
Second compound 0.0316 µM, first compound 0.0316 µM
  viability, T/C: 43.8%
Second compound 0.0316 µM, first compound 0.1 µM
  viability, T/C: 30.5%
Second compound 0.0316 µM, first compound 0.316 µM
  viability, T/C: 27.4%
Second compound 0.0316 µM, first compound 1 µM
  viability, T/C: 25.1%
Second compound 0.0316 µM, first compound 3.16 µM
  viability, T/C: 24.9%
Second compound 0.0316 µM, first compound 10 µM
  viability, T/C: 25.6%
Second compound 0.1 µM, first compound 0.0316 µM
  viability, T/C: 42.3%
Second compound 0.1 µM, first compound 0.1 µM
  viability, T/C: 37.3%
Second compound 0.1 µM, first compound 0.316 µM
  viability, T/C: 32.8%
Second compound 0.1 µM, first compound 1 µM
  viability, T/C: 35.2%
Second compound 0.1 µM, first compound 3.16 µM
  viability, T/C: 33.9%
Second compound 0.1 µM, first compound 10 µM
  viability, T/C: 34.1%
Second compound 0.316 µM, first compound 0.0316 µM
  viability, T/C: 43.5%
Second compound 0.316 µM, first compound 0.1 µM
  viability, T/C: 39.3%
Second compound 0.316 µM, first compound 0.316 µM
  viability, T/C: 41.7%
Second compound 0.316 µM, first compound 1 µM
  viability, T/C: 38.2%
Second compound 0.316 µM, first compound 3.16 µM
  viability, T/C: 35.8%
Second compound 0.316 µM, first compound 10 µM
  viability, T/C: 35.3%
Second compound 1 µM, first compound 0.0316 µM
  viability, T/C: 38.5%
Second compound 1 µM, first compound 0.1 µM
  viability, T/C: 37.4%
Second compound 1 µM, first compound 0.316 µM
  viability, T/C: 39.3%
Second compound 1 µM, first compound 1 µM
  viability, T/C: 43.2%
Second compound 1 µM, first compound 3.16 µM
  viability, T/C: 35.1%
Second compound 1 µM, first compound 10 µM
  viability, T/C: 36.2%
Second compound 3.16 µM, first compound 0.0316 µM
  viability, T/C: 39%
Second compound 3.16 µM, first compound 0.1 µM
  viability, T/C: 35%
Second compound 3.16 µM, first compound 0.316 µM
  viability, T/C: 35.8%
Second compound 3.16 µM, first compound 1 µM
  viability, T/C: 39.7%
Second compound 3.16 µM, first compound 3.16 µM
  viability, T/C: 35.8%
Second compound 3.16 µM, first compound 10 µM
  viability, T/C: 32.6%
Second compound 10 µM, first compound 0.0316 µM
  viability, T/C: 31.1%
Second compound 10 µM, first compound 0.1 µM
  viability, T/C: 28.7%
Second compound 10 µM, first compound 0.316 µM
  viability, T/C: 27.5%
Second compound 10 µM, first compound 1 µM
  viability, T/C: 31.7%
Second compound 10 µM, first compound 3.16 µM
  viability, T/C: 32.4%
Second compound 10 µM, first compound 10 µM
  viability, T/C: 30.8%

## Nc1ccn(C2OC(CO)C(O)C2(F)F)c(=O)n1 (centres undefined)
Compound 0.0316 µM
  viability, T/C: 30.6% and 26.5% and 26.6%
Compound 0.1 µM
  viability, T/C: 24.7% and 22.3% and 23.2%
Compound 0.316 µM
  viability, T/C: 28.7% and 23.9% and 24.1%
Compound 1 µM
  viability, T/C: 25.4% and 23.2% and 21.9%
Compound 3.16 µM
  viability, T/C: 27.3% and 23.6% and 20.7%
Compound 10 µM
  viability, T/C: 21.7% and 17.1% and 18.9%
Curve of compound
  IC50: < 31.6 nM
